Results as given in patent US10806711B2 (priority 2011, dated 2020).
“Also recorded” adds a separate entry of the source.

Legend:
[1] = test system: TRPV2^+/− mice; experiment: Contractility by echo after IP probenecid in TRPV2+/− mice; format: in vivo, mouse; conditions: 100 mg/kg
Method: (§1) WT, TRPV2^+/−, and TRPV2^−/− mice were monitored by echo for 30 minutes after injection as described below. Echocardiography—All echocardiographic studies were performed with a Vevo 2100 Ultrasound system (Visualsonics, Toronto Calif.) with an MS400 probe (30 MHz centerline frequency) and were post-processed at a separate workstation with Vevostrain software (Vevo 2100, v1.1.1 B1455, Visualsonic, Toronto, Canada). Images were obtained from PSLAX and short axis (SAX) views at depths between 2 and 10 mm in both M-mode and B-mode. All studies on mice exposed to I/R injury included M-mode, B-mode in PSLAX and strain imaging in SAX. While for the contractility studies, only M-mode measurements were obtained from the PSLAX. Strain imaging was performed from the B-mode images and regional radial strain and circumferential displacement were measured by regional wall and summed average from the SAX images. From the M-mode images, left ventricular cavity size and wall thickness was measured and the ejection fraction (EF) and fractional shortening (FS) calculations were obtained using the Vevo software. […] In addition, the average change from baseline for each time point between 5 and 30 minutes was determined for each mouse, with measurements being taken every 5 minutes. […]

[2] = test system: TRPV2^−/− mice; experiment: Contractility by echo after IP probenecid in TRPV2−/− mice; format: in vivo, mouse; conditions: 100 mg/kg IP
Method: as §1

[3] = test system: WT mice; experiment: In vivo electrophysiology (electrocardiographic data during echo studies); design: species or system mouse
Method: In vivo electrophysiology—Electrocardiographic data was obtained during all echocardiographic studies. These studies were subsequently analyzed by an independent, blinded reader at all time points to evaluate for electrocardiographic changes and drug induced arrhythmias. The following parameters were measured: PR interval, RR interval, QRS width and were reported as peak change while the presence of supraventricular or ventricular arrhythmias was measured as a total observed over all images obtained in 30 minutes.

[4] = test system: WT mice; experiment: Invasive evaluation of +dP/dt (LV pressure catheter); format: in vivo, mouse; conditions: 30 mg/kg and 100 mg/kg bolus IV, 5 minutes between doses
Method: Invasive evaluation.—Once a dose range was established, a separate group of WT mice were anesthetized with an intraperitoneal injection of ketamine (50 μg/g) and inactin (thiobutabarbital, 100 μg/g, Sigma, Mass.). A tracheotomy was performed (PE-90), and body temperature was monitored and maintained with a feedback-controlled heating table. The right femoral artery was cannulated with fluid-filled polyethylene tubing for measurement of blood pressure and connected to a low compliance pressure transducer (COBE Cardiovascular, Arvada, Colo.). The right femoral vein was cannulated for delivery of drugs. A high fidelity, 1.2-French SciSence pressure catheter (SciSence, London, ON, Canada) was inserted into the right carotid artery and advanced into the left ventricle to monitor cardiac performance. ECG leads were placed on the right and left arms, and left leg and connected to a BIOAmp (AD Instruments, Colorado Springs, Colo.). For carotid blood flow measurements, the left carotid artery was isolated and fitted with a 0.5-PSB perivascular flow probe connected to a TS420 flowmeter (Transonic Systems, Ithaca, N.Y.). […] Hemodynamic variables were collected and analyzed using a MacLab 4/S system (AD Instruments, Colorado Springs, Colo.) and Chart software.

[5] = test system: Langendorff perfused hearts of WT mice; experiment: Ex vivo (Langendorff) perfused isolated heart; design: species or system mouse; conditions: 10^−6 M perfusion
Method: Ex vivo (Langendorff) studies—Isolated heart experiments were performed as previously described on WT mice. […] Measurements were taken every second.

[6] = test system: phospholamban (PLN) and the ryanodine receptor (RyR), NCX, SERCA2a; experiment: Western blot of calcium handling proteins in Langendorff hearts; design: species or system mouse
From the text: Western Blot Analysis—WT hearts used for protein expression were isolated from control mice (C57, 12-16 weeks old) from the Langendorff experiments. Total protein for calcium handling proteins was isolated by homogenizing whole hearts in an ice-cold buffer containing (in mM): 80 Imidazole, 300 sucrose, 1 DTT, 10 sodium metabisulfite, the protease inhibitor cocktail P8340 (Sigma, St. Louis, Mo.) and the phosphatase inhibitor cocktail set II (EMD, Merck, Darmstadt, Germany). Protein concentrations were determined using the BCA Protein Assay kit (Pierce, Thermo Scientific, Rockford, Ill.). Aliquots of protein were separated on SDS-PAGE gels (Novex gels, Invitrogen, Eugene, Oreg.) and then transferred to nitrocellulose membranes (Bio-Rad, Hercules, Calif.) and blocked with 5% BSA. The membranes were analyzed with primary antibodies. When appropriate, the membranes were cut in half to allow two different primary antibodies to be used. The top half would be used for one of the Ca^2+ handling proteins and the bottom half (less than 60 kD) would be used for the normalization protein, actin. In circumstances where it wasn't appropriate to cut the membrane, as the two proteins were too close in size, the membranes were stripped after the first protein. Membranes were also stripped between primary antibodies for phosphorylated proteins and corresponding total protein.

[7] = test system: mice with and without I/R injury; conditions: mouse, in vivo, po, 6.33 mg/kg/day
Method: The hearts were removed, rinsed with PBS, fixed with 3.7% buffered formaldehyde (after 30 minutes the buffer was changed) and dehydrated (hearts were placed in 70% ethanol after 18-24 hours). The samples were embedded in paraffin, sectioned into thicknesses of 6 μm, each 10 μm apart, and 2 heart sections were placed onto each slide. The slides were prepared using the in situ apoptosis detection kit, CardioTACS (Trevigen, Gaithersburg, Md.) according to the manufacturer's instructions. After staining, the slides were placed on a microscope (Olympus 1×71) and the number of apoptotic cells was counted by two separate and blinded readers in 5 fields of view for each heart section. The total number of cells was also determined for the same field, and the apoptotic cells were calculated to be a percentage of the total cells.
The water was changed twice a week and the volume was measured before and after consumption to determine the approximate dose. The mice were housed 2 to a cage for a more accurate assessment of total dose administered.

[8] = test system: mice after I/R injury; experiment: Ischemia/Reperfusion followed by probenecid bolus (echocardiography); format: in vivo, mouse
Method: Ischemia/Reperfusion methods—Mice were anesthetized with sodium pentobarbital and the heart exposed through a left thoracotomy at the level of the fourth intercostal space. The mice were intubated and placed on a mini-ventilator (Harvard apparatus, Holliston, Mass.). A loop occluder was placed around the left anterior descending artery (LAD), and tightened, occluding it for either 30 minutes or 45 minutes. After surgery, the thorocotomy was sutured in layers, and the animal was allowed to recover. Echocardiography methods—All echocardiographic studies were performed as previously described for Example 1. […] The mice were imaged at 5 minute intervals for a total of 30 minutes.

[9] = test system: TRPV2; conditions: HEK293 cells, identified 2007; cited from earlier work

CCCN(CCC)S(=O)(=O)c1ccc(C(=O)O)cc1 [probenecid]
decrease in contractility response versus WT [1]: approximately 50%
cardiac response (contractility) during 30 minutes of echocardiogram [2]: no discernable cardiac response; also recorded: absolutely no change in function
electrocardiographic differences between WT and TRPV2−/− mice (FIG. 2D) ([3]; 100 mg/kg IP): no significant differences
changes in conduction intervals (RR, PR, QRS) ([3]; all doses): no measured changes in any conduction intervals; also recorded: no significant changes in any of the measured electrocardiographic variables
supraventricular or ventricular arrhythmias, premature beats ([3]; any dose of probenecid, observed over 30 minutes): No supraventricular or ventricular arrhythmias or premature atrial or ventricular beats were observed; also recorded: no arrhythmias
peak +dP/dt in vivo [4]: rapidly increased
change in average +dP/dt over time ([5]; paced 400 bpm): statistically significant from 90 to 210 seconds; also recorded: significantly different from baseline
relaxation (−dP/dt) ([5]; increased from 1812±158, P<0.01): 2309±133
expression levels of NCX and SERCA2a ([6]; hearts after 10^−6 M perfusion, data not shown): no changes were found in the expression levels
amount of phosphorylated or total phospholamban or ryanodine receptor ([6]; hearts after 5 minute perfusion of 10^−6 M): no significant changes
apoptosis in healthy mice [7]: did not induce significant apoptosis
EF after I/R injury ([8]; 100 mg/kg IP bolus, all treated mice): statistically significant increase in EF
change in EF at peak effect ([8]; 100 mg/kg IP, 10 minutes, mice with initial EF 50-60%): 19.72±4.10%
time of peak effect on EF ([8]; 100 mg/kg IP, mice with initial EF 50-60%): 10 min
contractility over time ([8]; 100 mg/kg IP, mice with lower initial EFs (40-50%)): continued to enhance contractility throughout the full 30-minute experiment
cytosolic Ca2+ in TRPV2-expressing cells [9]: significant increase
